In patent publication US10709724B2, “Methods of treating mitochondrial dysfunction” (Ecole Polytechnique Federale de Lausanne (EPFL), priority 2011, dated 2020):

How the values were obtained:
[1] = tested on: C57Bl/6J mice; test: Sirtuin activity and mitochondrial biogenesis in tissues after chronic NR feeding; format: in vivo
Protocol: (§1) mRNA and mtDNA Analysis. Total RNA was prepared using TRIzol (Invitrogen) according to the manufacturer's instructions. RNA was treated with DNase, and 2 μg of RNA was used for reverse transcription (RT). cDNA was purified on QIAquick PCR cleanup columns (Qiagen, Valencia, Calif., USA). 50× diluted cDNA was used for RT-quantitative PCR (RT-VCR) VCR) reactions (Bai et al., 2007). The RT-qPCR reactions were performed using the Light-Cycler system (Roche Applied Science) and a qPCR Supermix (Qiagen) with the primers for mice summarized in Table 1 and 4, and with the primers for worms summarized on Table 7. mtDNA quantification was performed as described (Lagouge et al., 2006) with the primers indicated in Table 2 and 5.
(§2) Immunoprecipitation, SDS-PAGE, Western Blotting. Cells were lysed in lysis buffer (50 mM Tris, […], EDTA 1 mM, NP40 1%, nicotinamide 5 mM, Na-butyrate 1 in M, protease inhibitors pH7.4). Proteins were separated by SDS-PAGE and transferred onto nitrocellulose membranes. The origin of the primary and secondary antibodies used can be found as supplemental experimental procedures. Reactions were developed by enhanced chemiluminescence (Amersham, Little Chalfont, UK), PGC-1α, FOXO1 and Ndufa9 acetylation levels were analyzed by immunoprecipitation from cellular or nuclear lysates of tissues with anti-PGC-1α (Millipore), anti-FOXO1 (Cell Signaling, Danvers, Mass., USA) and anti-Ndufa9 (Abcam) antibody followed by Western blot using an acetyl-lysine antibody (Cell Signaling) that was normalized to total PGC-1a/FOXO1/Ndufa9 levels (Lagouge et al., 2006; Rodgers et al., 2005). In HEK293T cells HA-tagged PGC-1α was overexpressed and was immunoprecipitated using an anti-HA. In C2C12 myotubes, FLAG-HA tagged PGC-1α was introduced through adenoviral delivery 2 days before treatments, then IP was performed using anti-FLAG antibody and samples were processed as described. All blots were quantified by densitometry using ImageJ software. Poly(ADP-Ribose) detection was performed as previously described with slight modifications (Bai et al., PARP-1 inhibition increases mitochondrial metabolism through SIRT1 activation. Cell Metab 13, 461-468. (2011)) Briefly, PAR was detected by using a monoclonal anti-PAR antibody (Alexis, Lausanne Switzerland) by Western blotting of total protein lysates, using either […] of total worm protein lysates, […] of liver protein lysate or 200 g of muscle total protein extracts. PGC-1 acetylation was determined using PGC-1 immunoprecipitates from 2 mg of protein extracts, as described in Canto et al. (Canto et al., AMPK regulates energy expenditure by modulating NAD+ metabolism and SIRT1 activity. Nature 458, 1056 (2009)).
Mitochondrial DNA Measurement The assay was performed as described (Lagouge et al., 2006). DNA. was extracted using the standard proteinase K digestion following phenol-chloroform extraction. Mitochondrial and genomic DNA was determined using specific primers in qPCR reactions (primers summarized in Table 2 and 5.) and was expressed as percentage of WT.
Determination of Protein Acetylation Status PGC-1α, FOXO1 and Ndufa9 acetylation was analyzed by immunoprecipitation of PGC-1, FOXO1 and Nduf9a from nuclear lysates of tissues with anti-PGC-1α (Millipore), anti-FOXO1 (1 mg, Cell Signaling, Danvers, Mass., USA), or Ndufa9 (Abeam) antibody followed by Western blot using an acetyl-lysine antibody (Cell Signaling) that was normalized to total PGC-1α/FOXO1/Ndufa9 (Canto et al., 2009). Tribulin acetylation was assessed by Western blotting of total protein samples by acetylated tubulin-specific antibody (Sigma) that was then normalized for total tubrilin (Santa Cruz).

[2] = tested on: C57Bl/6J mice; test: NAD+ metabolism in tissues after chronic NR feeding; format: in vivo
Protocol: as §1, §2
NAD^+ NAM Determination. NAD^+ levels in cultured cells were determined using a commercial kit (Enzychrom™, BioAssays Systems, CA). For tissue samples NAD^+ and NAM levels were determined as described in (Sauve et al., 2005). In brief, to a weighed aliquot of frozen pulverized tissue we added as standards, ^18O-NAD^+ (typically 2.00 nmol) and ^18O-NAM (typically 2.00 nmol). 70 L of ice-cold 7% perchloric acid was then added and the sample was vortexed and sonicated three times, then centrifuged. Clear supernatant was removed and neutralized by additions of 3 M NaOH and 1 M phosphate buffer (pH=9), then centrifuged. Clear supernatant was injected onto HPLC C-18 column with 20 mM ammonium acetate eluent to separate NAD^+ and NAM from other cellular components, NAD^+ and NAM peaks (260 nm absorbance) were collected. Collections were lyophilized to dryness and subjected to MALDI-TOF analysis. For NAD^+ measurement, ratio of intensities for m/z=664 and 666 peaks, corresponding to ^16O- and ^18O-NAD^+ isotopomers, was multiplied by 2.00 nmol and then divided by tissue weight to determine NAD+ concentration in the sample. […]

[3] = tested on: PDK4 and UCP-3 promoters; test: ChIP of PGC-1α promoter occupancy in C2C12 myotubes; format: cell-based; details: 1 μM, 48 h
Protocol: Chromatin Immunoprecipitation (ChIP). ChIP was performed according to (Bai et al., 2007). FLAG-HA-PGC-1 (Rodgers et al., 2005) was introduced by adenoviral transfer into C2C12 myotubes after 48 h of differentiation and cells were cultured for an additional 2 days. […] Thereafter ChIP was performed using anti-FLAG (Sigma) and anti-TNF-R1 (Santa Cruz) as described (Bai et al., 2007). Pelleted DNA was quantified by qPCR using the primers against PDK4 and UCP-3 promoters flanking the nuclear receptor site (Table 3 and 6). The results were normalized for the signal of the respective inputs (vehicle/PJ34-treated) and were expressed as a percentage. The signal of anti-TNF-R1 (non-specific antibody) was subtracted from the anti-FLAG signal (specific) and the specific signal was plotted. Primers for ChIP are summarized in Supplementary Table 3 and 6.

SMILES | expression of oxidative metabolism regulators and mitochondrial genes in quadriceps muscle ([1]; HFD 16 weeks) | mitochondrial DNA content in muscle ([1]; HFD 16 weeks) | mitochondrial proteins (Complex V ATP synthase subunit α, porin) in muscle, liver and BAT ([1]; HFD 16 weeks) | mitochondrial proteins in brain or WAT ([1]; HFD 16 weeks) | acetylation of SIRT1 and SIRT3 targets (FOXO1, SOD2) in skeletal muscle, liver and BAT ([1]; HFD 16 weeks, NR 400 mg/kg/day) | acetylation status of the SIRT2 target tubulin ([1]; NR 400 mg/kg/day) | NAD+ levels in liver and muscle ([2]; CD and HFD, chronic NR 400 mg/kg/day) | NAD+ in BAT ([2]; chronic NR 400 mg/kg/day) | NAD+ levels in brain or white adipose tissue (WAT) ([2]; chronic NR 400 mg/kg/day) | NADH levels in muscle ([2]; gastrocnemius, HFD 16 weeks) | nicotinamide (NAM) levels in muscle ([2]; gastrocnemius, HFD 16 weeks) | Nampt mRNA and protein levels ([2]; quadriceps, HFD 16 weeks) | mRNA expression of NMNAT enzymes ([2]; quadriceps, HFD 16 weeks) | PGC-1 binding to the UCP3 promoter [3] | PGC-1α recruitment to the PDK4 promoter [3]
NC(=O)c1ccc[n+]([C@@H]2O[C@H](CO)[C@@H](O)[C@H]2O)c1 [NR, nicotinamide riboside] | either an elevated expression or a strong tendency towards an increase | increased in muscle | prominent increase in mitochondrial proteins | such change was not observed in brain or WAT | prominent deacetylation | could not detect changes | increased NAD^+ levels | higher in the BAT of NR-fed mice, but only on HFD | but not in others, such as brain or white adipose tissue (WAT) | largely diminished | largely diminished | levels were also similar | could not detect differences | – | –
CN(C)CC(=O)Nc1ccc2[nH]c(=O)c3ccccc3c2c1 [PJ34] | – | – | – | – | – | – | – | – | – | – | – | – | – | not regulated through the binding of PGC-1 to its promoter | increased PGC-1α recruitment to target-genes
